Experimental data taken from the supplement of paper PMC10307832.

Legend:
Experiment in all cases: relative viability (nuclei count vs DMSO), 5 days (fraction); higher = more cells survive
Ispinesib + Crizotinib = compound: Cc1ccc(C(=O)N(CCCN)[C@@H](c2nc3cc(Cl)ccc3c(=O)n2Cc2ccccc2)C(C)C)cc1 [Ispinesib] + C[C@@H](Oc1cc(-c2cnn(C3CCNCC3)c2)cnc1N)c1c(Cl)ccc(F)c1Cl [Crizotinib] (partner 1 µM)
Outline: (§1)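 Relative viability equals treated-well nuclei counts divided by vehicle-well nuclei counts. Counts came from 4× images of lung cancer cell lines grown in 1536-well plates for 5 days after pin-tool dosing on the day after seeding. Dosing used one drug alone or a fixed anchor-drug dose plus five library-drug doses (not always all listed) in √10 steps, and values are medians of duplicate plates.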

Linsitinib + Pemetrexed = compound: C[C@]1(O)C[C@@H](c2nc(-c3ccc4ccc(-c5ccccc5)nc4c3)c3c(N)nccn32)C1 [Linsitinib] + Nc1nc2[nH]cc(CCc3ccc(C(=O)N[C@@H](CCC(=O)O)C(=O)O)cc3)c2c(=O)[nH]1 [Pemetrexed] (partner 0.2 µM)
Outline: as §1

Ispinesib + Luminespib = compound: Cc1ccc(C(=O)N(CCCN)[C@@H](c2nc3cc(Cl)ccc3c(=O)n2Cc2ccccc2)C(C)C)cc1 [Ispinesib] + CCNC(=O)c1noc(-c2cc(C(C)C)c(O)cc2O)c1-c1ccc(CN2CCOCC2)cc1 [Luminespib] (partner 0.01 µM)
Outline: as §1

Linsitinib + Dasatinib = compound: C[C@]1(O)C[C@@H](c2nc(-c3ccc4ccc(-c5ccccc5)nc4c3)c3c(N)nccn32)C1 [Linsitinib] + Cc1nc(Nc2ncc(C(=O)Nc3c(C)cccc3Cl)s2)cc(N2CCN(CCO)CC2)n1 [Dasatinib] (partner 0.075 µM)
Outline: as §1

| Cell Line | relative viability (Ispinesib + Crizotinib; first compound 0.001 µM) | relative viability (Ispinesib + Crizotinib; first compound 0.003162 µM) | relative viability (Ispinesib + Crizotinib; first compound 0.01 µM) | relative viability (Ispinesib + Crizotinib; first compound 0.03162 µM) | relative viability (Ispinesib + Crizotinib; first compound 0.1 µM) | relative viability (Linsitinib + Pemetrexed; first compound 0.01 µM) | relative viability (Linsitinib + Pemetrexed; first compound 0.03162 µM) | relative viability (Linsitinib + Pemetrexed; first compound 0.1 µM) | relative viability (Linsitinib + Pemetrexed; first compound 0.3162 µM) | relative viability (Linsitinib + Pemetrexed; first compound 1 µM) | relative viability (Ispinesib + Luminespib; first compound 0.001 µM) | relative viability (Ispinesib + Luminespib; first compound 0.003162 µM) | relative viability (Ispinesib + Luminespib; first compound 0.01 µM) | relative viability (Ispinesib + Luminespib; first compound 0.03162 µM) | relative viability (Ispinesib + Luminespib; first compound 0.1 µM) | relative viability (Linsitinib + Dasatinib; first compound 0.01 µM) | relative viability (Linsitinib + Dasatinib; first compound 0.03162 µM) | relative viability (Linsitinib + Dasatinib; first compound 0.1 µM) | relative viability (Linsitinib + Dasatinib; first compound 0.3162 µM) | relative viability (Linsitinib + Dasatinib; first compound 1 µM) |
| --- | --- | --- | --- | --- | --- | --- | --- | --- | --- | --- | --- | --- | --- | --- | --- | --- | --- | --- | --- | --- |
| NCI-H2087 | 0.839 | 1 | 0.995 | 0.61 | 0.146 | 0.559 | 0.591 | 0.571 | 0.555 | 0.646 | 0.168 | 0.159 | 0.189 | 0.14 | 0.151 | 0.756 | 0.917 | 0.819 | 0.549 | 0.624 |
| NCI-H322M | 1.03 | 0.918 | 0.976 | 0.747 | 0.973 | 0.612 | 0.605 | 0.582 | 0.59 | 0.523 | 0.992 | 0.888 | 0.729 | 0.612 | 0.58 | 0.244 | 0.256 | 0.229 | 0.223 | 0.26 |
| NCI-H1734 | 0.662 | 0.77 | 0.893 | 0.648 | 0.483 | 0.413 | 0.324 | 0.404 | 0.417 | 0.408 | 0.179 | 0.0914 | 0.177 | 0.192 | 0.157 | 0.473 | 0.488 | 0.45 | 0.504 | 0.315 |
| NCI-H2228 | 0.511 | 0.4 | 0.539 | 0.374 | 0.207 | 0.398 | 0.297 | 0.357 | 0.311 | 0.331 | 0.121 | 0.14 | 0.228 | 0.127 | 0.159 | 0.48 | 0.483 | 0.52 | 0.421 | 0.387 |
| EKVX | 1.19 | 1.34 | 1.06 | 0.689 | 0.196 | – | 0.243 | 0.425 | 0.352 | 0.36 | 0.837 | 0.875 | 0.937 | 0.829 | 0.563 | 0.603 | 0.625 | 0.532 | 0.513 | 0.5 |
| NCI-H596 | 1.1 | 0.95 | 1 | 1.03 | 0.652 | 0.552 | 0.428 | 0.497 | 0.447 | 0.46 | 1.01 | 0.954 | 1.07 | 1.06 | 0.609 | 0.643 | 0.673 | 0.625 | 0.647 | 0.437 |
| NCI-H1975 | 1.09 | 1.02 | 1.08 | 0.491 | 0.205 | 0.287 | 0.239 | 0.293 | 0.287 | 0.289 | 0.231 | 0.217 | 0.21 | 0.351 | 0.198 | 0.37 | 0.349 | 0.331 | 0.241 | 0.235 |
| NCI-H2170 | 1.34 | 1.31 | 1.33 | 0.693 | 0.411 | 0.255 | 0.241 | 0.251 | – | 0.276 | 0.74 | 0.53 | 0.964 | 0.351 | 0.448 | 0.56 | 0.569 | 0.519 | 0.409 | 0.488 |
